Data from paper PMC12381781, “Structural and functional insights into the selective inhibition of mutant tau aggregation by purpurin and oleocanthal in frontotemporal dementia” (Protein Science : A Publication of the Protein Society, 2025).
Where two headings read alike, the source gives them in different places.

Columns and labels:
R2R3 (P301L) tau peptide = R2R3 (P301L) tau peptide (Homo sapiens, UniProt P10636, P618L); assay: SPR titration cycle kinetics, immobilized R2R3 (P301L) peptide; type: binding
Chain of R2R3 (P301L) tau peptide (P10636 592-653 P618L): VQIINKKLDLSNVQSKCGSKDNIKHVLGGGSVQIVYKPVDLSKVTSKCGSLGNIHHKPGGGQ
Procedure: SPR experiments were conducted using the Sierra® SPR‐24 Pro system (Bruker Daltonics, Bremen, Germany), featuring a gold‐coated microfluidic array (24 detection spots, 3 × 8 format). Data acquisition and kinetic analysis were performed using SPR Analyzer 4 software.
All experiments were conducted at 25°C using PBS (pH 7.4) supplemented with 0.05% Tween‐20 and 5% DMSO as the running buffer to ensure assay reproducibility. Assay components, including 96‐well microtiter plates (Part # 1862984; Burker) and Microplate and Reservoir Sealer (Part #1862985; Burker), were used for sample handling and were compatible with the Sierra SPR®‐24 Pro system (Bruker Daltonics, Billerica, MA, USA).
WT and mutant (P301L, V287I, and N279K) tau peptides were dissolved in 10 mM sodium acetate buffer (pH 5.0; Burker) and immobilized onto High‐Capacity Amine Sensor Surfaces (Part #1862614; Bruker) using the Amine Coupling Kit (Part #1862634; Bruker). The sensor surface was preconditioned with a Surface Elution Buffer (Part #1862656; Bruker Daltonics) and 0.1M HCl to remove contaminants and improve binding specificity.
The surface was activated using 400 mM 1‐ethyl‐3‐(3‐dimethylaminopropyl) carbodiimide (Burker) and 50 mM N‐hydroxysuccinimide (Burker), enabling covalent attachment of tau peptides. Unreacted binding sites were blocked with 1M ethanolamine‐HCl (pH 8.5; Burker) to minimize nonspecific interactions. For each experiment, specific sensor spots (A/B/C) on channels 1–8 were designated for tau‐analyte interactions, with corresponding reference spots on the same channel for baseline correction. DMSO calibration solutions (4.6%, 4.8%, 5%, 5.2%, and 5.4%) were prepared for double referencing to compensate for DMSO solvent effects.
PUR and OLC were prepared in PBS (pH 7.4) supplemented with 0.05% Tween‐20 and 5% DMSO. Compound interactions with tau peptides were pre‐screened using a concentration range of 1–100 μM, and subsequent binding kinetics were evaluated at optimized concentrations. For kinetic studies, PUR was tested at […], while OLC was tested at 25–100 μM using two‐fold serial dilutions. Each analyte was sequentially injected, and association and dissociation phases were monitored to determine kinetic parameters.
SPR binding kinetics were assessed using the titration cycle kinetics (TCK) assay, which included consecutive association phases followed by a single dissociation phase. Pre‐assay simulations using the Kinetic Simulator feature of SPR Analyzer 4 software were used to optimize analyte concentration ranges and association/dissociation times. A reference blank injection was included for double referencing, and a single dissociation curve was recorded for the highest analyte concentration.
Sensorgrams were analyzed using the Kinetic Titration model, which was integrated into the global kinetic fitting model of the SPR Analyzer 4 software. This approach allowed for baseline correction and improved the reliability of kinetic parameters, including the Kon, Koff, and KD.
TCK‐derived kinetic parameters were compared across multiple runs and confirmed using Multi Injection Cycle Kinetics to validate reproducibility and accuracy.

[1] = tested on: preformed R2R3 (P301L) fibrils; assay: Elongation of preformed R2R3 (P301L) fibrils, ThT; type: biochemical; details: R2R3 P301L pre-aggregated 24 h, compound 10 μM; for fibril elongation, aggregation post-treatment as percentage of control (AUC after compound addition): further 24–30 h; for ThT-stained aggregates from post-treatment samples, confocal imaging: further 24 h
Procedure: Peptides were pre‐aggregated for 24 h with aggregation kinetics monitored by ThT fluorescence, after which 10 μM PUR or OLC was added, followed by an additional 24–30 h of incubation (Figure 4a). Aggregation kinetics was monitored by ThT fluorescence, and elongation was quantified as the AUC following compound addition, normalized to each replicate's maximum pre‐treatment fluorescence (Figure 4b). […] WT peptide fibril elongation was reduced to 15.5 ± 2.8% (PUR) and 45.2 ± 3.2% (OLC), and P301L peptide fibril elongation was limited to 31.8 ± 0.6% (PUR) and 85.6 ± 2.2% (OLC) (Figure 4b). Fluorescence microscopy imaging further confirmed the presence of reduced ThT‐positive aggregates following the addition of PUR and OLC (Figure S12). Similar inhibition trends, with PUR outperforming OLC, were also observed for V287I and N279K peptides (Figure S12).
FIGURE 4 Purpurin (PUR) and oleocanthal (OLC) inhibit elongation of preformed wild‐type (WT) and P301L tau fibrils. (a) The thioflavin T (ThT) fluorescence kinetics of pre‐aggregated R2R3 (WT and P301L) tau peptides treated with PUR or OLC (10 μM). Peptides were first allowed to aggregate for 24 h, followed by compound addition and continued incubation for an additional 24–30 h. Vertical dashed lines indicate the time point of compound addition. Curves are normalized to each replicate's maximum pre‐treatment ThT fluorescence. Source data are provided in the Data Availability Statement section. Mean ± SEM (n ≥ 3). (b) Aggregation levels post‐treatment, expressed as a percentage of control (untreated fibrils), calculated from the area under the curve after compound addition. Mean ± SEM (n ≥ 3). ***p < 0.001, **p < 0.01, one‐way ANOVA (Tukey's post hoc test).
Figure S12. Confocal imaging of ThT-stained aggregates from post-treatment samples in Figure 4. R2R3 (WT and P301L) tau peptides were incubated for 24 h to allow initial aggregation, followed by the addition of PUR or OLC (10 µM). After a further 24 h, reaction mixtures from compound-treated wells were collected, embedded in 0.05% low-melting agarose, and processed for imaging as described in Figure S11. […] Scale bar: 50 μm.

SMILES	Kon (R2R3 (P301L) tau peptide; SPR, R2R3 P301L)	koff (R2R3 (P301L) tau peptide; SPR, R2R3 P301L)	Kd (R2R3 (P301L) tau peptide; SPR, R2R3 P301L peptide immobilized, 25°C, PBS pH 7.4, read-out: KD)	fibril elongation, aggregation post-treatment as percentage of control (AUC after compound addition) [1]	ThT-stained aggregates from post-treatment samples, confocal imaging [1]	Kd (R2R3 (P301L) tau peptide)	kon (R2R3 (P301L) tau peptide; SPR, R2R3 P301L)	koff (R2R3 (P301L) tau peptide; SPR, R2R3 P301L, read-out: Koff)
C/C=C(/C=O)[C@@H](CC=O)CC(=O)OCCc1ccc(O)cc1 [OLC, oleocanthal]	52.36 M⁻¹ s⁻¹	8.26e-05 s⁻¹	1.58 µM	85.6 ± 2.2%	either a complete absence or a marked reduction in ThT signal	–	–	–
O=C1c2ccccc2C(=O)c2c(O)c(O)cc(O)c21 [PUR, purpurin]	–	–	–	31.8 ± 0.6%	either a complete absence or a marked reduction in ThT signal	14.8 µM	26.4 M⁻¹ s⁻¹	0.00039 s⁻¹
